Results published in article PMC12649549, “Sequence Permutation Generated Lysine and Tryptophan-Rich Antimicrobial Peptides with Enhanced Therapeutic Index” (Antibiotics, 2025).
Read-outs that look alike come from different tables or passages of the source.

Assays:
[1] = test system: Both Gram-positive and -negative bacteria; experiment: Geometric mean MIC, therapeutic index and fold changes of MIC, whole panel of strains; type: cell-based
Method: In this study, we aimed to investigate the potential of W5K series peptides for therapeutic use. To evaluate their efficacy for antibacterial therapy, we used the Therapeutic Index (TI) as a measure of their cell selectivity. The TI was calculated as the ratio of the concentration causing 10% hemolysis of human red blood cells (HC10) to the geometric mean minimum inhibitory concentration (GM) of the peptides against both Gram-negative and Gram-positive bacteria. This parameter was used to quantitatively assess the balance between antibacterial potency and cytotoxicity among the W5K derivatives.
(§1) The antibacterial activities of the peptides in Müller-Hinton (MH) broth and modified LYM broth were determined using the standard broth microdilution method as per Clinical and Laboratory Standards Institute (CLSI) guidelines. The LYM broth was prepared with specific components and adjusted to different conditions, including varying concentrations of NaCl and MgCl2, and different pH levels. To prepare the LYM broth, 5.4 mM KCl, 5.6 mM Na2HPO4, 0.5 mM MgSO4, and 1.0 mM sodium citrate were added. Additionally, 0.4 mg of ZnCl2, 2.0 mg of FeCl3·6H2O, 0.1 mg of CuSO4·5H2O, 0.1 mg of MnSO4·H2O, 0.1 mg of Na2B4O7∙10H2O, 700 mg of amino acid mixtures without tryptophan (Takara Bio Inc., San Jose, CA, USA), and 20 mg of L-tryptophan were added per liter of medium. The pH was adjusted to 7.4, and a vitamin mixture (100X, Sigma) and glucose concentration of 2% were added. For different conditions of LYM broth, NaCl concentrations of 300, 200, 150, and 50 mM, MgCl2 concentrations of 2.5, 1.5, and 0.5 mM, and pH levels of 6.5, 5.5, and 4.5 were adjusted. Bacterial strains were incubated in MH broth overnight, regrown, and diluted to a final concentration of 5 × 10^5 CFU/mL. Peptides were added to each well at final concentrations of 50, 25, 12.5, 6.25, 3.13, 1.56, and 0.78 µg/mL, and 99 µL of diluted microbes was loaded into each well of a polypropylene 96-well plate. […] The Morpheus HeatMap software (https://software.broadinstitute.org/morpheus/) was used to display MIC values on a color scale. All experiments were independently repeated three times.

S. aureus ATCC 33593 = test system: S. aureus ATCC 33593
Procedure, shortened: (§2)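 Salt and pH tolerance was assessed by determining MICs in LYM medium containing 50–300 mM NaCl, 0.5–2.5 mM MgCl2, or at pH 4.5–6.5, alongside MH broth. The inoculum was 5 × 10^5 CFU/mL.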

S. aureus ATCC 33591 = test system: S. aureus ATCC 33591
Procedure, shortened: as §2

[2] = test system: Pseudomonas aeruginosa Migula (ATCC 27853)
Procedure, shortened: as §2

S. aureus ATCC 33592 = test system: S. aureus ATCC 33592
Method: The antibacterial and salt-resistant activity of the peptides was tested using Escherichia coli (ATCC 25922), Pseudomonas aeruginosa Migula (ATCC 27853), Acinetobacter sp. (BCRC number 14B0091, BCRC number 14B0097, and BCRC number 14B0100), and Staphylococcus aureus sp. strains (ATCC 25923, ATCC 33591, ATCC 33592, ATCC 33593, and ATCC 6538). All bacteria were obtained from the Food Industry Research and Development Institute (Hsinchu, Taiwan) and cultured in sterilized Müller-Hinton (MH) broth at 37 °C and 200 rpm for 8 h. The inoculum concentrations were determined by measuring the optical density at 600 nm (OD 600 = 1, approximately 10^8 CFU/mL) using an Ultrospec 2100 pro UV-Visible spectrophotometer (Biochrom Ltd., Cambridge, UK) after 8 h of culture.
as §1, with “For different conditions of LYM broth, NaCl concentrations of 300, 200, 150, and 50 mM, MgCl2 concentrations of 2.5, 1.5, and 0.5 mM, and pH levels of 6.5, 5.5, and 4.5 were adjusted.” left out

[3] = LYM broth, 0 mM NaCl, 16 h, 37 °C
[4] = LYM broth, 50 mM NaCl, 16 h, 37 °C
[5] = LYM broth, 100 mM NaCl, 16 h, 37 °C
[6] = LYM broth, 200 mM (NaCl), 16 h, 37 °C
[7] = LYM broth, 300 mM (NaCl), 16 h, 37 °C
[8] = MH broth, 5 × 10^5 CFU/mL, 16 h, 37 °C, repeated three times

Q: How did the “GM G−/+ (geometric mean of the MIC values)” value ([1]; Both Gram-positive and -negative bacteria, MH broth, MIC >50 µg/mL counted as 100 µg/mL) turn out when Ac-AKKKKWRKWLKWL-NH2 [Peptide W5K10] was run?
A: 5.4 µg/mL

Q: And the “Therapeutic Index (TI) G−/+” value ([1]; HC10/GM, both Gram-positive and -negative bacteria)?
A: 20.0

Q: And the “weakening of antibacterial efficacy (MIC)” value ([1]; LYM broth, 300 mM NaCl)?
A: up to 4 fold

Q: What about the MIC (S. aureus ATCC 33593; [3]) of the same substance?
A: 3.13 µg/mL

Q: What about the MIC (S. aureus ATCC 33593; LYM broth, 0.5 mM MgCl2) of the same substance?
A: 3.13 µg/mL

Q: What about the MIC (S. aureus ATCC 33593; LYM broth, 1.5 mM MgCl2) of the same substance?
A: 3.13 µg/mL

Q: And the MIC (S. aureus ATCC 33593; LYM broth, 2.5 mM MgCl2)?
A: 6.25 µg/mL

Q: And the MIC (S. aureus ATCC 33593; [4])?
A: 6.25 µg/mL

Q: What about the MIC (S. aureus ATCC 33593; [5]) of the same substance?
A: 6.25 µg/mL

Q: And the MIC (S. aureus ATCC 33593; [6])?
A: 12.5 µg/mL

Q: And the MIC (S. aureus ATCC 33593; [7])?
A: 25 µg/mL

Q: And the MIC (S. aureus ATCC 33593; LYM broth, pH 4.5)?
A: 6.25 µg/mL

Q: And the MIC (S. aureus ATCC 33593; LYM broth, pH 5.5)?
A: 3.13 µg/mL

Q: And the MIC (S. aureus ATCC 33593; LYM broth, pH 6.5)?
A: 3.13 µg/mL

Q: What about the MIC (S. aureus ATCC 33593; [8]) of the same substance?
A: 12.5 µg/mL

Q: And the MIC (S. aureus ATCC 33591; [3])?
A: 3.13 µg/mL

Q: And the MIC (S. aureus ATCC 33591; LYM broth, 0.5 mM MgCl2)?
A: 3.13 µg/mL

Q: And the MIC (S. aureus ATCC 33591; LYM broth, 1.5 mM MgCl2)?
A: 3.13 µg/mL

Q: And the MIC (S. aureus ATCC 33591; LYM broth, 2.5 mM MgCl2)?
A: 6.25 µg/mL

Q: What about the MIC (S. aureus ATCC 33591; [4]) of the same substance?
A: 6.25 µg/mL

Q: And the MIC (S. aureus ATCC 33591; [5])?
A: 6.25 µg/mL

Q: And the MIC (S. aureus ATCC 33591; [6])?
A: 12.5 µg/mL

Q: And the MIC (S. aureus ATCC 33591; [7])?
A: 25 µg/mL

Q: What about the MIC (S. aureus ATCC 33591; LYM broth, pH 4.5) of the same substance?
A: 6.25 µg/mL

Q: What about the MIC (S. aureus ATCC 33591; LYM broth, pH 5.5) of the same substance?
A: 3.13 µg/mL

Q: What about the MIC (S. aureus ATCC 33591; LYM broth, pH 6.5) of the same substance?
A: 3.13 µg/mL

Q: And the MIC (S. aureus ATCC 33591; [8])?
A: 12.5 µg/mL

Q: What about the MIC [2, 3] of the same substance?
A: 3.13 µg/mL

Q: And the MIC ([2]; LYM broth, 0.5 mM MgCl2)?
A: 3.13 µg/mL

Q: What about the MIC ([2]; LYM broth, 1.5 mM MgCl2) of the same substance?
A: 3.13 µg/mL

Q: What about the MIC ([2]; LYM broth, 2.5 mM MgCl2) of the same substance?
A: 6.25 µg/mL

Q: What about the MIC [2, 4] of the same substance?
A: 6.25 µg/mL

Q: What about the MIC [2, 5] of the same substance?
A: 6.25 µg/mL

Q: What about the MIC [2, 6] of the same substance?
A: 12.5 µg/mL

Q: What about the MIC [2, 7] of the same substance?
A: 25 µg/mL

Q: And the MIC ([2]; LYM broth, pH 4.5)?
A: 3.13 µg/mL

Q: And the MIC ([2]; LYM broth, pH 5.5)?
A: 3.13 µg/mL

Q: What about the MIC ([2]; LYM broth, pH 6.5) of the same substance?
A: 1.56 µg/mL

Q: And the MIC [2, 8]?
A: 6.25 µg/mL

Q: And the MIC (S. aureus ATCC 33592; [3])?
A: 3.13 µg/mL

Q: And the MIC (S. aureus ATCC 33592; LYM broth, 0.5 mM MgCl2)?
A: 3.13 µg/mL

Q: And the MIC (S. aureus ATCC 33592; LYM broth, 1.5 mM MgCl2)?
A: 3.13 µg/mL

Q: And the MIC (S. aureus ATCC 33592; LYM broth, 2.5 mM MgCl2)?
A: 3.13 µg/mL

Q: What about the MIC (S. aureus ATCC 33592; [4]) of the same substance?
A: 6.25 µg/mL

Q: And the MIC (S. aureus ATCC 33592; [5])?
A: 6.25 µg/mL

Q: And the MIC (S. aureus ATCC 33592; [6])?
A: 12.5 µg/mL

Q: And the MIC (S. aureus ATCC 33592; [7])?
A: 25 µg/mL

Q: And the MIC (S. aureus ATCC 33592; LYM broth, pH 4.5)?
A: 3.13 µg/mL

Q: What about the MIC (S. aureus ATCC 33592; LYM broth, pH 5.5) of the same substance?
A: 3.13 µg/mL

Q: And the MIC (S. aureus ATCC 33592; LYM broth, pH 6.5)?
A: 3.13 µg/mL

Q: And the MIC (S. aureus ATCC 33592; [8])?
A: 12.5 µg/mL
